Patent US12350259B2, “Methods of treating migraine” (Allergan Pharmaceuticals International Limited, priority 2021, dated 2025)
Where two headings read alike, the source gives them in different places.

Columns and labels:
[1] = Atogepant-itraconazole drug interaction study: atogepant plasma PK; type: in vivo, human; settings: for Tmax / AUC(0-inf) / AUC(0-t) / Cmax / half-life / Vd/F: both sexes, human, plasma, oral; for Vd/F: read-out: Vz/F
Description: An open-label, single-sequence drug-drug interaction study was carried out to evaluate the effect of CYP3A4 inhibition by oral itraconazole (200 mg per day) on the pharmacokinetics of a single oral dose of atogepant (60 mg) in healthy subjects.
This study was a single-center, single-sequence, open-label, 2-period PK drug-interaction study in 40 healthy male and female subjects aged 18 through 45 years.
Subjects who satisfied the inclusion and exclusion criteria were assigned to a single fixed-treatment sequence in which they received Treatment A followed by Treatment B; there was a 7-day washout period between treatments. • Treatment A: Single oral 60 mg dose of atogepant (tablet) under fasted conditions on Day 1 • Treatment B • Days 8-14: Itraconazole 200 mg (tablet) orally once daily under fed conditions. • Day 15: Itraconazole 200 mg coadministered with atogepant 60 mg (tablet) under fasted conditions. • Days 16 to 17: Itraconazole 200 mg (tablet) once daily under fed conditions.
Atogepant was administered in the fasted state in this study. Administration of itraconazole with food enhances its bioavailability. Accordingly, to maximize the CYP3A4 inhibition effect, itraconazole was administered with food on all the itraconazole treatment days except day 15. On day 15, both itraconazole and atogepant were administered under fasted state. Fasted state administration of itraconazole on Day 15 was unlikely to affect the CYP3A4 inhibition effect due to the attainment of steady state (of CYP3A4 activity) and long T1/2 of itraconazole (34 to 42 hours) following repeat dose administration.

[2] = Excretion after single oral dose of 14C-atogepant; type: in vivo, human; settings: single oral dose of 50 mg 14C-atogepant, healthy male subjects
Description: The parent compound (atogepant) and a glucuronide conjugate metabolite (M23) were the most prevalent circulating components in human plasma. […] Following a single oral dose of 50 mg ^14C-atogepant to healthy male subjects, 42% and 5% of the dose was recovered as unchanged atogepant in feces and urine, respectively.

[3] = Atogepant-quinidine gluconate interaction study: safety; type: in vivo, human; settings: atogepant 60 mg alone or with quinidine gluconate
Text: Atogepant PK parameters calculated were peak plasma concentration (Cmax); time to Cmax (tmax); and area under plasma concentration—time curve from time 0 to time t (AUC0-t) and infinity (AUC0-∞). […] Safety assessments included clinical laboratory values, vital signs, electrocardiograms, and […] adverse events (TEAEs).

MAO-A = MAO-A (Homo sapiens, UniProt P21397); experiment: Enzyme inhibition; type: in vitro ADME; settings: clinically relevant concentrations
CYP3A4 [4] = molecular target: CYP3A4 (Homo sapiens, UniProt P08684); experiment: Elimination by metabolism; type: in vitro ADME
MRP4 = MRP4 (Homo sapiens, UniProt O15439); experiment: Transporter inhibition; type: in vitro ADME; settings: clinically relevant concentrations
CYP3A4 [5] = experiment: CYP induction; type: in vitro ADME; settings: clinically relevant concentrations
BCRP = BCRP (Homo sapiens, UniProt Q9UNQ0); experiment: Transporter inhibition; type: in vitro ADME; settings: clinically relevant concentrations
[6] = Hepatic impairment study: atogepant plasma protein binding; type: in vitro ADME, human; settings: human, plasma, oral, 60 mg, 2 hr post dose, read-out: plasma protein binding, percent bound (converted)
Description: (§1) Protein binding blood samples were collected from all participants starting on Day 1 at 0 hour (predose) and at 2 hours post dose. The pre-dose samples collected prior to dosing for each participant were externally spiked with known quantities of atogepant. Percent bound atogepant was determined in the 2-hour sample using direct measurement of the atogepant concentrations in the blood sample.

plasma protein = experiment: as above; type: in vitro ADME, human; settings: for fraction unbound: human, 0 hr (predose, spiked sample), read-out: plasma protein binding, percent bound (converted); for plasma protein binding, percent bound: 2 hr post dose
Description: as §1

OAT1 = OAT1 (Homo sapiens, UniProt Q4U2R8); experiment: Transporter substrate; type: in vitro ADME
[7] = Treatment A: atogepant 60 mg single dose alone, fasted
[8] = Treatment B: atogepant 60 mg + steady state itraconazole 200 mg
[9] = atogepant + itraconazole vs atogepant alone
[10] = co-administration with itraconazole (strong CYP3A4 inhibitor), healthy subjects

CYP3A4 (Homo sapiens, UniProt P08684), sequence (P08684 whole entry): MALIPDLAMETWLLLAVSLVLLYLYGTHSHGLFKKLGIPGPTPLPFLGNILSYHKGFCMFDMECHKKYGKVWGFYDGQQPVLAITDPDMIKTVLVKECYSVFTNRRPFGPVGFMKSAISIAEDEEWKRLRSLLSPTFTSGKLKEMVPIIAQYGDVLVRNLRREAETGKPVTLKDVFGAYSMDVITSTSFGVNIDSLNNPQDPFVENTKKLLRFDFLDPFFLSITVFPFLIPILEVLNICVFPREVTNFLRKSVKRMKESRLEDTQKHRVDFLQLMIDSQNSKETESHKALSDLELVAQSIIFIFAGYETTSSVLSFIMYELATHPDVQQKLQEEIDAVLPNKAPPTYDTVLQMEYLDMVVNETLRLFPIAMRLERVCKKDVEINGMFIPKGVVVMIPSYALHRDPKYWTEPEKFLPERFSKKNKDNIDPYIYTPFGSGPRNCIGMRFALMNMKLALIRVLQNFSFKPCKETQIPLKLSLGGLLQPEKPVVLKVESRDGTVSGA
MAO-A, sequence (P21397 whole entry): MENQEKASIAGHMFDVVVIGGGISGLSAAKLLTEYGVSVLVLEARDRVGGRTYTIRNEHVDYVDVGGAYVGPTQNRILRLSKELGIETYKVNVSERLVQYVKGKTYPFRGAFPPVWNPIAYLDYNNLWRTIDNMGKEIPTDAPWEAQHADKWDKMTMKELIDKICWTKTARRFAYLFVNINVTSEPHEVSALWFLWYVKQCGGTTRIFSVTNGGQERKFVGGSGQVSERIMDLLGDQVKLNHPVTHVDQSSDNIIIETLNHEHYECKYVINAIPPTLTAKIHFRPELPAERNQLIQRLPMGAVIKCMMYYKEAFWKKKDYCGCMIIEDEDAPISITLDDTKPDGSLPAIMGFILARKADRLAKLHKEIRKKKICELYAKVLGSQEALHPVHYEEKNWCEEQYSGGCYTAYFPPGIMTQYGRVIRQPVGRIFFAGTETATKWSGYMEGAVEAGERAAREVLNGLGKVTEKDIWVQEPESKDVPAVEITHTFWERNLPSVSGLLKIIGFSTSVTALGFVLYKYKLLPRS
OAT1, sequence (Q4U2R8 whole entry): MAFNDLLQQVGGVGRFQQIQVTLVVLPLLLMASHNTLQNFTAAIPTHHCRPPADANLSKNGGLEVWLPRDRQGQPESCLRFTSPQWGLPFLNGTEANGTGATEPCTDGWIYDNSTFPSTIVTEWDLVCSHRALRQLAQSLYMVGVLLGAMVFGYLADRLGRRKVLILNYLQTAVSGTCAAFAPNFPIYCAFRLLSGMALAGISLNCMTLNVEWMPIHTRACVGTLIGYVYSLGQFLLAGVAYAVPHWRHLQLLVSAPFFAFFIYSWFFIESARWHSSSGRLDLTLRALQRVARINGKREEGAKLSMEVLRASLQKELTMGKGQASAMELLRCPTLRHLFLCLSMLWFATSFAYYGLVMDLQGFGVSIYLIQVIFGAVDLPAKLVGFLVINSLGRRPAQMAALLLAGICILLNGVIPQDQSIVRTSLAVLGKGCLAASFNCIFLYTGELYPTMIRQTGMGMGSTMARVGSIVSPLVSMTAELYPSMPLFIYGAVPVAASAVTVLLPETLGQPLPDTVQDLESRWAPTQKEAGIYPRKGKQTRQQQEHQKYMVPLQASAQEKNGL
MRP4, sequence (O15439 whole entry): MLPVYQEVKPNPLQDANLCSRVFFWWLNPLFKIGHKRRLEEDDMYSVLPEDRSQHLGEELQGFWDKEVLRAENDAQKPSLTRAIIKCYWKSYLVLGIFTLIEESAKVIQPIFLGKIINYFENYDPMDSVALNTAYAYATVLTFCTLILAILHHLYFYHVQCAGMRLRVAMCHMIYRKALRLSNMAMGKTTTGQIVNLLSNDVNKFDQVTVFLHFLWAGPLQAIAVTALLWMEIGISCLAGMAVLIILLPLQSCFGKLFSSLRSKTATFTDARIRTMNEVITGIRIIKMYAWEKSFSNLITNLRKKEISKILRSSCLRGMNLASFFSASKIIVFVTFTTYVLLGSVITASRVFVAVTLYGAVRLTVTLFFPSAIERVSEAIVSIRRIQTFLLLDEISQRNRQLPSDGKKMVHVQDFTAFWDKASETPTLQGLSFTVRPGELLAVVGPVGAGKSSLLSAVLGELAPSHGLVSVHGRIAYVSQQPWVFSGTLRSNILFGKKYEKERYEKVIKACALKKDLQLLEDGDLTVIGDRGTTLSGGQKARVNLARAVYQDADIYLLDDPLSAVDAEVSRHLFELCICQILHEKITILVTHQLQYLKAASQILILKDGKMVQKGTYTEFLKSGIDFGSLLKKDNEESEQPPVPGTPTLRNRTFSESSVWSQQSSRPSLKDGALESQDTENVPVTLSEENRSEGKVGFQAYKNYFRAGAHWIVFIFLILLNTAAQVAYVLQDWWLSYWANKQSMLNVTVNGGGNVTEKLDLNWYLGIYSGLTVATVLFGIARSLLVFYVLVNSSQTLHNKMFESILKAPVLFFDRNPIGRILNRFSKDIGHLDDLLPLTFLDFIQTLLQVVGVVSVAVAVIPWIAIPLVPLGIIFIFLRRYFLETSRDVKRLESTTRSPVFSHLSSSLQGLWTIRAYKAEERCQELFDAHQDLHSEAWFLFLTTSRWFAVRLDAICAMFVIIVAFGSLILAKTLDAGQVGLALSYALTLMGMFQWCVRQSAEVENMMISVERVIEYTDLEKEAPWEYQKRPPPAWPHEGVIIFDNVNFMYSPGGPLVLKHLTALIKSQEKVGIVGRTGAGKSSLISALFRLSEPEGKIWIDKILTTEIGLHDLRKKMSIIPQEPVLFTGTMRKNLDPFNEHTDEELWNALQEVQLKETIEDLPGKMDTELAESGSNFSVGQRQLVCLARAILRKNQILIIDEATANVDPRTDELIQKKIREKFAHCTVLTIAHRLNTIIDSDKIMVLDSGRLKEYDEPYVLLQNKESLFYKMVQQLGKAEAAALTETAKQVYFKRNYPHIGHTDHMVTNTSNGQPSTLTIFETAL
BCRP, sequence (Q9UNQ0 whole entry): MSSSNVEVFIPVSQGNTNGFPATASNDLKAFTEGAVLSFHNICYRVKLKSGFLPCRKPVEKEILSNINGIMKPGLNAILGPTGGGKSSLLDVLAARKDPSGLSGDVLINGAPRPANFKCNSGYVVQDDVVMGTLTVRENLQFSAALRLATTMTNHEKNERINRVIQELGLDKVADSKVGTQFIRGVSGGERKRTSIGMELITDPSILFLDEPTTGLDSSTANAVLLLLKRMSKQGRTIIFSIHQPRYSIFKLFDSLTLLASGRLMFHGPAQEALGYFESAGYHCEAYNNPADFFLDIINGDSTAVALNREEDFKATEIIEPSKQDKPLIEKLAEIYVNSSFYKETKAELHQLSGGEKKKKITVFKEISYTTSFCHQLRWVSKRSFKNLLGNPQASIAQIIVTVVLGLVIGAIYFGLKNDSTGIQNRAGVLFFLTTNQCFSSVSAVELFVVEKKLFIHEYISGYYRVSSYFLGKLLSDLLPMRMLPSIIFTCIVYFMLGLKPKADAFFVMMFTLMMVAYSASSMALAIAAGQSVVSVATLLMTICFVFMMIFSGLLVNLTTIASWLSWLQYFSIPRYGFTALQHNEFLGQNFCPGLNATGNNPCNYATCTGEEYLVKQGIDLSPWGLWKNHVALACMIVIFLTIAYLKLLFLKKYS

`C[C@@H]1[C@H](c2c(F)ccc(F)c2F)C[C@H](NC(=O)c2cnc3c(c2)C[C@@]2(C3)C(=O)Nc3ncccc32)C(=O)N1CC(F)(F)F` [atogepant, (3′S)-N-[(3S,5S,6R)-6-methyl-2-oxo-1-(2,2,2-trifluoroethyl)-5-(2,3,6-trifluorophenyl)piperidin-3-yl]-2′-oxo-1′,2′,5,7-tetrahydrospiro[cyclopenta[b]pyridine-6,3′-pyrrolo[2,3-b]pyridine]-3-carboxamide] gave a CL/F [1, 7] of 19.2 L/h, a λz [1, 7] of 0.0825 h⁻¹ and a CL/F [1, 8] of 3.46 L/h. For the same compound, the λz [1, 8] was 0.0496 h⁻¹, the “AUC0-t GM Ratio Treatment B/Treatment A” value [1, 9] was 543.26% and the “AUC0-∞ GM Ratio Treatment B/Treatment A” value [1, 9] was 550.78%. The “Cmax GM Ratio Treatment B/Treatment A” value [1, 9] was 215.11%, the Tmax ([1]; 60 mg, Treatment A: atogepant 60 mg single dose alone, fasted, read-out: Tmax (median)) was 2 h and the Tmax ([1]; atogepant + itraconazole vs atogepant alone, read-out: Tmax difference of medians) was 1 h. It also gave an AUC(0-inf) [1, 7] of 3470 ng·h/mL, an AUC(0-t) [1, 7] of 3440 ng·h/mL and a Cmax [1, 7] of 740 ng/mL. For the same compound, the half-life [1, 7] was 11.2 h, the Vd/F [1, 7] was 292 L and the AUC(0-inf) [1, 8] was 18900 ng·h/mL. For the same compound, the AUC(0-t) [1, 8] was 18500 ng·h/mL, the Cmax [1, 8] was 1580 ng/mL and the half-life [1, 8] was 14.9 h. For the same compound, the Tmax ([1]; Treatment B: atogepant 60 mg + steady state itraconazole 200 mg, read-out: Tmax (median)) was 3 h, the Vd/F [1, 8] was 73.4 L and the “increase in atogepant AUC” value [1, 10] was 5.5 fold. The “increase in atogepant Cmax” value [1, 10] was 2.15 fold, the “dose recovered as unchanged atogepant in feces” value [2] was 42% and the “dose recovered as unchanged atogepant in urine” value [2] was 5%. For the same compound, the safety and tolerability [3] was “safe and well tolerated”, the “inhibition of MAO-A” value (MAO-A) was “does not inhibit” and the “route of elimination (metabolism)” value (CYP3A4 [4]) was “primarily by CYP3A4”. The “inhibition of MRP4” value (MRP4) was “not an inhibitor”, the “induction of CYP3A4” value (CYP3A4 [5]) was “not an inducer” and the “inhibition of BCRP” value (BCRP) was “not an inhibitor”. For the same compound, the fraction unbound at 2 h ([6]; mild-impaired) was 0.026, the fraction unbound at 2 h ([6]; moderate-impaired) was 0.029 and the fraction unbound at 2 h ([6]; normal hepatic function) was 0.018. The fraction unbound at 2 h ([6]; severe-impaired) was 0.047, the fraction unbound (plasma protein; mild-impaired) was 0.0297 and the fraction unbound (plasma protein; moderate-impaired) was 0.034. For the same compound, the fraction unbound (plasma protein; normal hepatic function) was 0.0211, the fraction unbound (plasma protein; severe-impaired) was 0.0552 and the “plasma protein binding, percent bound” value (plasma protein; mild-impaired) was 97.36 ± 0.70%. For the same compound, the “plasma protein binding, percent bound” value (plasma protein; moderate-impaired) was 97.05 ± 0.62%, the “plasma protein binding, percent bound” value (plasma protein; normal hepatic function) was 98.21 ± 0.46% and the “plasma protein binding, percent bound” value (plasma protein; severe-impaired) was 95.34 ± 0.85%. The “substrate of OAT1” value (OAT1) was “substrate”.
